Numbers after ± are expanded uncertainties.
Assay: xn = mol fraction of the nth substance listed
Conditions: 100 kPa, Liquid; for mass density: Vibrating tube method

CCC12CC3CC(CC(C3)C1)C2 [1-ethyladamantane] + CCCCCCCO
Conditions	mass density, 313.15 K [kg/m3]	mass density, 318.15 K [kg/m3]	mass density, 323.15 K [kg/m3]	mass density, 328.15 K [kg/m3]	mass density, 333.15 K [kg/m3]	viscosity, 313.15 K [mPa·s]	viscosity, 318.15 K [mPa·s]	viscosity, 323.15 K [mPa·s]	viscosity, 328.15 K [mPa·s]	viscosity, 333.15 K [mPa·s]
x2 = 0	–	919.21 ± 0.15	915.62 ± 0.15	912.01 ± 0.15	908.41 ± 0.15	3.878 ± 0.061	3.478 ± 0.055	3.134 ± 0.05	2.838 ± 0.045	2.581 ± 0.041
x2 = 0.0999	–	909.33 ± 0.15	905.62 ± 0.15	901.91 ± 0.15	898.19 ± 0.15	3.516 ± 0.056	3.135 ± 0.05	2.811 ± 0.045	2.531 ± 0.04	2.291 ± 0.036
x2 = 0.1999	–	899.51 ± 0.15	895.76 ± 0.15	892.03 ± 0.15	888.26 ± 0.16	3.376 ± 0.053	3.003 ± 0.048	2.687 ± 0.043	2.413 ± 0.038	2.178 ± 0.034
x2 = 0.2988	–	889.49 ± 0.15	885.74 ± 0.15	881.97 ± 0.16	878.19 ± 0.16	3.286 ± 0.052	2.922 ± 0.046	2.608 ± 0.041	2.338 ± 0.037	2.106 ± 0.033
x2 = 0.3991	–	878.91 ± 0.15	875.17 ± 0.16	871.39 ± 0.16	867.59 ± 0.16	3.251 ± 0.051	2.882 ± 0.046	2.569 ± 0.041	2.299 ± 0.036	2.066 ± 0.033
x2 = 0.4998	871.61 ± 0.16	867.88 ± 0.16	864.13 ± 0.16	860.35 ± 0.16	856.55 ± 0.16	3.235 ± 0.051	2.859 ± 0.045	2.54 ± 0.04	2.267 ± 0.036	2.033 ± 0.032
x2 = 0.5995	860.15 ± 0.16	856.43 ± 0.16	852.69 ± 0.16	848.92 ± 0.16	845.11 ± 0.16	3.275 ± 0.052	2.884 ± 0.046	2.555 ± 0.04	2.271 ± 0.036	2.03 ± 0.032
x2 = 0.7	848.08 ± 0.16	844.37 ± 0.16	840.64 ± 0.16	836.88 ± 0.16	833.08 ± 0.16	3.331 ± 0.053	2.919 ± 0.046	2.573 ± 0.041	2.28 ± 0.036	2.033 ± 0.032
x2 = 0.8002	835.43 ± 0.16	831.75 ± 0.16	828.04 ± 0.16	824.29 ± 0.16	820.51 ± 0.16	3.454 ± 0.054	3.012 ± 0.047	2.644 ± 0.042	2.333 ± 0.037	2.07 ± 0.033
x2 = 0.9	822.17 ± 0.16	818.53 ± 0.16	814.85 ± 0.16	811.13 ± 0.16	807.38 ± 0.17	3.589 ± 0.057	3.12 ± 0.049	2.728 ± 0.043	2.399 ± 0.038	2.121 ± 0.033
